Results on one compound are retold here after patent US10696686B2, “Herbicidally active (alkynyl-phenyl)-substituted cyclic dione compounds and derivatives thereof” (Syngenta Limited, priority 2013, dated 2020).

Experiment in all cases: Biological Example 1B glasshouse assay, pre-emergence application
Assay type in all cases: in vivo
Common to all, as to conditions: 250 g/ha, 13 days after application

The subject of assay [1] is Abutilon theophrasti (ABUTH). In a few lines:
(§1)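 Glasshouse spray test: herbicide in acetone/water (50:50) + 0.5% Tween 20, applied pre-emergence (1 d after sowing) or post-emergence (8 d), sandy soil. Injury scored visually, 0–100%, at 13 DAA.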

Assay [2] deals with Amaranthus retroflexus (AMARE). Put shortly:
as §1

Assay [3] deals with Setaria faberi (SETFA). In a few lines:
as §1

Assay [4] concerns Zea mays (ZEAMX, corn, maize, e.g. volunteer corn). In a few lines: as §1

For the compound `C#CCC1CC(=O)C(c2c(F)cc(C#CC)cc2OC)C1=O` (stereo not shown) [Compound A8, 2-(2-fluoro-6-methoxy-4-prop-1-ynyl-phenyl)-4-prop-2-ynyl-cyclopentane-1,3-dione], the “Percentage phytotoxicity ABUTH” value in assay [1] is given as 0%. The “Percentage phytotoxicity AMARE” value in assay [2] was 0%. Moreover, the “Percentage phytotoxicity SETFA” value in assay [3] came out at 90%. In addition, the “Percentage phytotoxicity ZEAMX” value in assay [4] came out at 100%.
